Among the data in the OligoGym collection are 3 h FOB score values, retold here.

HELM strings list units from the 5' end as sugar, base in round brackets, then linkage (d deoxyribose, r ribose, m 2'-O-methyl, p phosphodiester). Strings are as the collection lists them; they lack the last nucleoside at the 3' end of the tested compound. [moe] = 2'-O-(2-methoxyethyl) (MOE); [sp] = phosphorothioate linkage; [m5C] = 5-methylcytosine

This data set has as its target UBE3A-ATS. Put plainly: mouse, dose not given. The following applies: ASO.

The substance “RNA1{[moe]([m5C])[sp].[moe](T)p.[moe](T)p.[moe](T)p.[moe]([m5C])p.d(A)[sp].d(T)[sp].d([m5C])[sp].d(A)[sp].d(G)[sp].d(T)[sp].d(T)[sp].d(A)[sp].d(G)[sp].d(T)[sp].[moe]([m5C])p.[moe](A)p.[moe](G)[sp].[moe](G)}$$$$ (last 3' nucleoside missing)” registered a 3 h FOB score of 3.5 score 0-7. With “RNA1{[moe]([m5C])[sp].[moe](T)p.[moe](T)p.[moe]([m5C])[sp].d(A)[sp].d([m5C])[sp].d([m5C])[sp].d(A)[sp].d(T)[sp].d(T)[sp].d(T)[sp].d(T)[sp].[moe](G)p.[moe](A)p.[moe]([m5C])p.[moe]([m5C])[sp].[moe](T)}$$$$ (last 3' nucleoside missing)” the figure was 0 score 0-7; with “RNA1{[moe]([m5C])[sp].[moe](T)p.[moe](T)p.[moe]([m5C])p.[moe](A)p.[moe]([m5C])p.d([m5C])[sp].d(A)[sp].d(T)[sp].d(T)[sp].d(T)[sp].d(T)[sp].d(G)[sp].d(A)[sp].d([m5C])[sp].d([m5C])[sp].[moe](T)p.[moe](T)[sp].[moe]([m5C])}$$$$ (last 3' nucleoside missing)”, 1 score 0-7; with “RNA1{[moe]([m5C])[sp].[moe](T)p.[moe](T)p.[moe]([m5C])p.[moe](A)p.d(A)[sp].d([m5C])[sp].d(T)[sp].d(A)[sp].d(A)[sp].d([m5C])[sp].d(A)[sp].d(G)[sp].d(T)[sp].d(A)[sp].[moe](T)p.[moe]([m5C])p.[moe](T)[sp].[moe](T)}$$$$ (last 3' nucleoside missing)”, 0 score 0-7. Take “RNA1{[moe]([m5C])[sp].[moe](T)p.[moe](T)p.[moe]([m5C])p.[moe](A)p.d(T)[sp].d(T)[sp].d(A)[sp].d(T)[sp].d(T)[sp].d([m5C])[sp].d(T)[sp].d([m5C])[sp].d(T)[sp].d(A)[sp].[moe](G)p.[moe](T)p.[moe](G)[sp].[moe]([m5C])}$$$$ (last 3' nucleoside missing)”: the 3 h FOB score was found to be 0 score 0-7. To “RNA1{[moe]([m5C])[sp].[moe](T)p.[moe](T)p.[moe]([m5C])p.[moe](A)p.d([m5C])[sp].d([m5C])[sp].d(A)[sp].d(T)[sp].d(T)[sp].d(T)[sp].d(T)[sp].d(G)[sp].d(A)[sp].d([m5C])[sp].[moe]([m5C])p.[moe](T)p.[moe](T)[sp].[moe]([m5C])}$$$$ (last 3' nucleoside missing)” belongs 1 score 0-7; to “RNA1{[moe]([m5C])[sp].[moe](T)p.[moe](T)p.[moe]([m5C])p.d(A)[sp].d([m5C])[sp].d([m5C])[sp].d(A)[sp].d(T)[sp].d(T)[sp].d(T)[sp].d(T)[sp].d(G)[sp].d(A)[sp].[moe]([m5C])p.[moe]([m5C])p.[moe](T)p.[moe](T)[sp].[moe]([m5C])}$$$$ (last 3' nucleoside missing)”, 1 score 0-7; to “RNA1{[moe]([m5C])[sp].[moe](T)p.[moe]([m5C])p.[moe](A)[sp].d(G)[sp].d(T)[sp].d(T)[sp].d(A)[sp].d(G)[sp].d(G)[sp].d(T)[sp].d(T)[sp].[moe](A)p.[moe](G)p.[moe](T)p.[moe](G)[sp].[moe]([m5C])}$$$$ (last 3' nucleoside missing)”, 5.3 score 0-7.

Substance “RNA1{[moe]([m5C])[sp].[moe](T)p.[moe]([m5C])p.[moe](A)p.[moe](G)[sp].d(T)[sp].d(T)[sp].d(A)[sp].d(G)[sp].d(G)[sp].d(T)[sp].d(T)[sp].d(A)[sp].[moe](G)p.[moe](T)p.[moe](G)[sp].[moe]([m5C])}$$$$ (last 3' nucleoside missing)” showed a 3 h FOB score of 1.3 score 0-7. Substance “RNA1{[moe]([m5C])[sp].[moe](T)p.[moe]([m5C])p.[moe](A)p.[moe](G)p.[moe](T)[sp].d(T)[sp].d(A)[sp].d(G)[sp].d(G)[sp].d(T)[sp].d(T)[sp].d(A)[sp].d(G)[sp].[moe](T)p.[moe](G)[sp].[moe]([m5C])}$$$$ (last 3' nucleoside missing)” had a 3 h FOB score of 6.3 score 0-7.

Take “RNA1{[moe]([m5C])[sp].[moe](T)p.[moe]([m5C])p.[moe](A)p.[moe](G)p.[moe](T)p.d(T)[sp].d(A)[sp].d(G)[sp].d(G)[sp].d(T)[sp].d(T)[sp].d(A)[sp].d(G)[sp].d(T)[sp].d(G)[sp].[moe]([m5C])p.[moe](A)[sp].[moe]([m5C])}$$$$ (last 3' nucleoside missing)”: the 3 h FOB score came to 4 score 0-7.

The substance “RNA1{[moe]([m5C])[sp].[moe](T)p.[moe]([m5C])p.[moe](A)p.[moe](G)p.d(T)[sp].d(T)[sp].d(A)[sp].d(G)[sp].d(G)[sp].d(T)[sp].d(T)[sp].d(A)[sp].d(G)[sp].d(T)[sp].[moe](G)p.[moe]([m5C])p.[moe](A)[sp].[moe]([m5C])}$$$$ (last 3' nucleoside missing)” yielded a 3 h FOB score of 6 score 0-7. As for “RNA1{[moe]([m5C])[sp].[moe](T)p.[moe]([m5C])p.[moe](A)p.d(G)[sp].d(T)[sp].d(T)[sp].d(A)[sp].d(G)[sp].d(G)[sp].d(T)[sp].d(T)[sp].d(A)[sp].d(G)[sp].[moe](T)p.[moe](G)p.[moe]([m5C])p.[moe](A)[sp].[moe]([m5C])}$$$$ (last 3' nucleoside missing)”, the 3 h FOB score was 4 score 0-7. To “RNA1{[moe]([m5C])[sp].[moe](T)p.[moe]([m5C])p.[moe]([m5C])p.[moe](A)p.d(G)[sp].d(T)[sp].d(T)[sp].d(T)[sp].d(T)[sp].d([m5C])[sp].d(G)[sp].d([m5C])[sp].d([m5C])[sp].d([m5C])[sp].[moe](G)p.[moe](T)p.[moe](T)[sp].[moe](A)}$$$$ (last 3' nucleoside missing)” belongs 3.3 score 0-7. To “RNA1{[moe]([m5C])[sp].[moe]([m5C])p.[moe](A)p.[moe](A)p.[moe](T)p.d(A)[sp].d(T)[sp].d(T)[sp].d(T)[sp].d(T)[sp].d(G)[sp].d(A)[sp].d([m5C])[sp].d(T)[sp].d(A)[sp].[moe](G)p.[moe](T)p.[moe](T)[sp].[moe]([m5C])}$$$$ (last 3' nucleoside missing)” belongs 4.2 score 0-7; to “RNA1{[moe]([m5C])[sp].[moe]([m5C])p.[moe](A)p.[moe](A)p.[moe]([m5C])p.d(T)[sp].d(T)[sp].d([m5C])[sp].d(A)[sp].d(T)[sp].d([m5C])[sp].d(A)[sp].d(A)[sp].d(T)[sp].d(A)[sp].[moe](T)p.[moe](T)p.[moe](T)[sp].[moe]([m5C])}$$$$ (last 3' nucleoside missing)”, 0 score 0-7; to “RNA1{[moe]([m5C])[sp].[moe]([m5C])p.[moe](A)p.[moe](G)p.[moe](G)p.d(T)[sp].d(G)[sp].d(T)[sp].d([m5C])[sp].d(T)[sp].d(T)[sp].d(A)[sp].d(T)[sp].d(A)[sp].d(T)[sp].[moe]([m5C])p.[moe](T)p.[moe](A)[sp].[moe](T)}$$$$ (last 3' nucleoside missing)”, 1 score 0-7. With “RNA1{[moe]([m5C])[sp].[moe]([m5C])p.[moe](A)p.[moe](G)p.[moe](T)p.d(T)[sp].d(T)[sp].d(T)[sp].d([m5C])[sp].d(G)[sp].d([m5C])[sp].d([m5C])[sp].d([m5C])[sp].d(G)[sp].d(T)[sp].[moe](T)p.[moe](A)p.[moe]([m5C])[sp].[moe]([m5C])}$$$$ (last 3' nucleoside missing)” the figure was 4.5 score 0-7; with “RNA1{[moe]([m5C])[sp].[moe]([m5C])p.[moe](A)p.[moe](G)p.[moe]([m5C])p.d([m5C])[sp].d(A)[sp].d(G)[sp].d(G)[sp].d(T)[sp].d(G)[sp].d(T)[sp].d([m5C])[sp].d(T)[sp].d(T)[sp].[moe](A)p.[moe](T)p.[moe](A)[sp].[moe](T)}$$$$ (last 3' nucleoside missing)”, 3.8 score 0-7. “RNA1{[moe]([m5C])[sp].[moe]([m5C])p.[moe](A)p.[moe](T)p.[moe](T)p.d(T)[sp].d(T)[sp].d(G)[sp].d(A)[sp].d([m5C])[sp].d([m5C])[sp].d(T)[sp].d(T)[sp].d([m5C])[sp].d(T)[sp].[moe](T)p.[moe](A)p.[moe](G)[sp].[moe]([m5C])}$$$$ (last 3' nucleoside missing)”: the 3 h FOB score was found to be 1 score 0-7. To “RNA1{[moe]([m5C])[sp].[moe]([m5C])p.[moe](A)p.[moe](T)p.[moe](T)p.d([m5C])[sp].d(A)[sp].d(G)[sp].d([m5C])[sp].d(A)[sp].d([m5C])[sp].d(T)[sp].d(T)[sp].d(A)[sp].d(G)[sp].[moe](G)p.[moe](T)p.[moe](A)[sp].[moe](G)}$$$$ (last 3' nucleoside missing)” belongs 3.7 score 0-7; to “RNA1{[moe]([m5C])[sp].[moe]([m5C])p.[moe](A)p.[moe]([m5C])p.[moe](A)p.d([m5C])[sp].d(A)[sp].d(T)[sp].d(A)[sp].d(T)[sp].d(A)[sp].d(G)[sp].d(G)[sp].d([m5C])[sp].d(T)[sp].[moe](A)p.[moe](G)p.[moe]([m5C])[sp].[moe]([m5C])}$$$$ (last 3' nucleoside missing)”, 1 score 0-7; to “RNA1{[moe]([m5C])[sp].[moe]([m5C])p.[moe](T)p.[moe](A)p.[moe](T)p.d(A)[sp].d(G)[sp].d(G)[sp].d(T)[sp].d(G)[sp].d(G)[sp].d([m5C])[sp].d([m5C])[sp].d(T)[sp].d(T)[sp].[moe]([m5C])p.[moe](A)p.[moe](G)[sp].[moe](T)}$$$$ (last 3' nucleoside missing)”, 5 score 0-7.

In the case of “RNA1{[moe]([m5C])[sp].[moe]([m5C])p.[moe](T)p.[moe](T)p.[moe](T)p.d([m5C])[sp].d(T)[sp].d(A)[sp].d(T)[sp].d(T)[sp].d(T)[sp].d([m5C])[sp].d(A)[sp].d(G)[sp].d(A)[sp].[moe]([m5C])p.[moe]([m5C])p.[moe](G)[sp].[moe](A)}$$$$ (last 3' nucleoside missing)”, the 3 h FOB score came out at 2.3 score 0-7.

Substance “RNA1{[moe]([m5C])[sp].[moe]([m5C])p.[moe](T)p.[moe]([m5C])p.[moe](T)p.d(T)[sp].d([m5C])[sp].d([m5C])[sp].d(A)[sp].d(A)[sp].d(A)[sp].d(A)[sp].d(T)[sp].d(T)[sp].d([m5C])[sp].[moe](T)p.[moe]([m5C])p.[moe](A)[sp].[moe]([m5C])}$$$$ (last 3' nucleoside missing)” showed a 3 h FOB score of 0 score 0-7.
